Data reported in ChEMBL document CHEMBL1135788, “Novel structures derived from 2-[[(2-pyridyl)methyl]thio]-1H-benzimidazole as anti-Helicobacter pylori agents, Part 1” (2002).
Converted amounts (≈) assume the structure as drawn. “And” between values parts separate entries of the source, which are not always exact repeats. Equal entries are not always repeated.

Each molecule was assayed on Staphylococcus aureus (assay: Minimum bactericidal concentration against Staphylococcus aureus CCUG 1800T).
Type: functional

Row | SMILES | MBC
1 | Cc1c(OCC(C)C)ccnc1CNc1nc2ccccc2[nH]1 | 64 µg/mL (≈ 206 µM)

The molecules below were run on Escherichia coli (assay: Minimum bactericidal concentration against Escherichia coli K-12).
Type: functional

Row | SMILES | MBC
2 | Cc1c(OCC(C)C)ccnc1CNc1nc2ccccc2[nH]1 | 206 µM (≈ 63.9 µg/mL)

These molecules were tested on Helicobacter pylori (assay: (§1) Minimum bactericidal concentration against Helicobacter pylori ATCC 43504).
Type: functional

Row | SMILES | MBC
3 | Cc1c(CSc2nc3ccccc3o2)cccc1OCC(C)C | 64 µg/mL and 195 µM
4 | Cc1c(CCc2nc3ccccc3s2)cccc1OCC(C)C | 32 µg/mL and 98 µM
5 | Cc1c(OCC(C)C)ccnc1COc1nc2ccccc2o1 | 16 µg/mL and 51 µM
6 | COCCOCCOCCSc1cccc(CSc2nc3ccccc3[nH]2)c1C | 0.5 µg/mL and 1.16 µM
7 | Cc1c(CSc2nc3ccccc3s2)cccc1OCC(C)C | > 128 µg/mL and > 373 µM
8 | COCCOCCOCCOCCOCCSc1cccc(CSc2nc3ccccc3[nH]2)c1C | 0.5 µg/mL and 0.96 µM
9 | Cc1c(OCC(C)C)ccnc1CCc1nc2ccccc2o1 | 32 µg/mL and 103 µM
10 | Cc1c(OCC(C)C)ccnc1CNc1nc2ccccc2s1 | 32 µg/mL and 98 µM
11 | COCCOCCOCCOCCOCCOc1cccc(CSc2nc3ccccc3[nH]2)c1C | 2 µg/mL and 3.96 µM
12 | COCCOCCOCCOc1cccc(CSc2nc3ccccc3[nH]2)c1C | 4 µg/mL and 9.6 µM
13 | CCC(=O)c1ccc2[nH]c(SCc3cccc(SCCOCCOCCOCCOCCOC)c3C)nc2c1 | 2 µg/mL and 3.47 µM
14 | Cc1c(CNc2nc3ccccc3[nH]2)cccc1OCC(C)C | 2 µg/mL and 6.5 µM
15 | Cc1c(CNc2nc3ccccc3[nH]2)cccc1SCCN1CCOCC1 | 32 µg/mL and 107 µM
16 | Cc1c(CSc2nc3ccccc3[nH]2)cccc1SCC(C)C | 4 µg/mL and 8.76 µM
17 | Cc1c(CSc2nc3ccccc3[nH]2)cccc1SCCn1c([N+](=O)[O-])cnc1C | 2 µg/mL and 4.55 µM
18 | Cc1c(CCc2nc3ccccc3[nH]2)cccc1OCC(C)C | 8 µg/mL and 26 µM
19 | Cc1c(OCC(C)C)ccnc1CSc1nc2ccccc2o1 | 32 µg/mL and 81 µM
20 | Cc1c(CSc2nc3ccccc3[nH]2)cccc1OCC(C)C | 8 µg/mL and 19 µM
21 | Cc1c(OCC(C)C)ccnc1CCc1nc2ccccc2[nH]1 | 32 µg/mL and 103 µM
22 | Cc1c(OCC(C)C)ccnc1CCc1cc2ccccc2o1 | 16 µg/mL and 52 µM
23 | Cc1c(CCc2cc3ccccc3o2)cccc1OCC(C)C | 128 µg/mL and 415 µM
24 | COCCOCCOCCSc1cccc(CNc2nc3ccccc3[nH]2)c1C | 77 µM
25 | Cc1c(OCC(C)C)ccnc1CNc1nc2ccccc2[nH]1 | 8 µg/mL

Row | SMILES | MBC
26 | COCCOCCOCCOCCOCCSc1cccc(CSc2nc3cc(CO)ccc3[nH]2)c1C | 8 µg/mL and 15 µM
27 | Cc1c(OCC(C)C)ccnc1CNc1nc2ccccc2o1 | 32 µg/mL and 103 µM
28 | Cc1c(OCC(C)C)ccnc1CSc1cc2ccccc2[nH]1 | 4 µg/mL and 12 µM
29 | Cc1c(CSc2nc3ccccc3[nH]2)cccc1SCCn1cncn1 | 4 µg/mL and 10.5 µM
30 | Cc1c(CCc2cc3ccccc3[nH]2)cccc1OCC(C)C | 16 µg/mL and 52 µM
31 | Cc1c(COc2nc3ccccc3o2)cccc1OCC(C)C | 32 µg/mL and 103 µM
32 | COCCOCCOCCSc1cccc(CNc2nc3ccccc3s2)c1C | 4 µg/mL and 9.25 µM
33 | Cc1c(OCC(C)C)ccnc1CSc1nc2ccccc2[nH]1 | 1 µg/mL and 3 µM
34 | Cc1c(CSc2cc3ccccc3[nH]2)cccc1OCC(C)C | 32 µg/mL and 98 µM
35 | Cc1c(CSc2nc3ccccc3[nH]2)cccc1SCCN1CCOCC1 | 1 µg/mL and 2.5 µM
36 | Cc1c(CSc2nc3ccccc3[nH]2)cccc1OCCN1CCOCC1 | 16 µg/mL and 42 µM
37 | Cc1c(OCC(C)C)ccnc1COc1nc2ccccc2s1 | 16 µg/mL and 49 µM
38 | CCOC(=O)c1ccc2[nH]c(SCc3cccc(SCCOCCOCCOCCOCCOC)c3C)nc2c1 | 2 µg/mL and 3.37 µM
39 | Cc1c(OCC(C)C)ccnc1CCc1nc2ccccc2s1 | 16 µg/mL and 49 µM
40 | Cc1c(OCC(C)C)ccnc1CSc1nc2ccccc2s1 | 32 µg/mL and 93 µM
41 | Cc1c(CNc2nc3ccccc3s2)cccc1OCC(C)C | > 128 µg/mL and > 392 µM
42 | COCCOCCOCCOCCOCCSc1cccc(CSc2nc3cc(N)ccc3[nH]2)c1C | 8 µg/mL and 15 µM
43 | Cc1c(CCc2nc3ccccc3o2)cccc1OCC(C)C | 16 µg/mL and 52 µM
44 | Cc1c(CNc2nc3ccccc3o2)cccc1OCC(C)C | > 128 µg/mL and > 412 µM
45 | Cc1c(COc2nc3ccccc3s2)cccc1OCC(C)C | 128 µg/mL and 391 µM
46 | CC1(C)S[C@@H]2[C@H](NC(=O)[C@H](N)c3ccc(O)cc3)C(=O)N2[C@H]1C(=O)O [AMOXICILLIN] | 0.05 µg/mL
47 | CC[C@H]1OC(=O)[C@H](C)[C@@H](O[C@H]2C[C@@](C)(OC)[C@@H](O)[C@H](C)O2)[C@H](C)[C@@H](O[C@@H]2O[C@H](C)C[C@H](N(C)C)[C@H]2O)[C@](C)(OC)C[C@@H](C)C(=O)[C@H](C)[C@@H](O)[C@]1(C)O [CLARITHROMYCIN] | 0.1 µg/mL

The molecules below were run on Helicobacter pylori (assay: Minimum bactericidal concentration against Helicobacter pylori ATCC 43504; range 2-4 ug/mL).
Type: functional

Row | SMILES | MBC
48 | Cc1ncc([N+](=O)[O-])n1CCO [METRONIDAZOLE] | 2 µg/mL (≈ 11.7 µM)

Each molecule was assayed on Helicobacter pylori (assay: as §1).
Type: functional

Row | SMILES | MBC
49 | COCCOCCOCCSc1cccc(CNc2nc3ccccc3[nH]2)c1C | 32 µg/mL (≈ 77 µM)

System: Helicobacter pylori
Test: as §1
Type: functional
Remark: another data set of the same source

Row | SMILES | MBC
50 | Cc1c(OCC(C)C)ccnc1CNc1nc2ccccc2[nH]1 | 26 µM (≈ 8.07 µg/mL)
